The subject of the assay is Cyclin-dependent kinase. Nature of the assay: Cyclin-dependent kinase inhibition, % inhibition at 10 nM (library Examples 99-270). The assay is classed as biochemical. The note with it: 10 nM compound. The essentials: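 Radiometric filter assay: kinase transfers ³²P/³³P from 25 μM ATP to a protein substrate in pH 7.4 HEPES buffer with MgCl2, 2% DMSO, 30° C, 20 min. EDTA stop; substrate captured on nitrocellulose or phosphocellulose membrane, washed with phosphoric acid, counted by phosphorimager.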
Regarding `CCNCc1cncc(-c2ccc3[nH]nc(-c4ncc(C(=O)NCc5ccc(C(=O)OC)cc5)[nH]4)c3c2)c1C` [Example 194, methyl-4-[({[2-(5-{5-[(ethylamino)methyl]-4-methylpyridin-3-yl}-1H-indazol-3-yl)-1H-imidazol-5-yl]carbonyl}amino)methyl]benzoate], the “% Inhib @ 10 nM” value was found to be 65%.
Next, `CCNCc1cncc(-c2ccc3[nH]nc(-c4ncc(C(=O)N5CCCC5c5cccc6ccccc56)[nH]4)c3c2)c1C` (stereo not drawn) [Example 195, ethyl({4-methyl-5-(3-(5-{[2-(1-naphthyl)pyrrolidin-1-yl]carbonyl}-1H-imidazol-2-yl)-1 H-indazol-5-yl]pyridin-3-yl]methyl)amine]: 32%; `CCNCc1cncc(-c2ccc3[nH]nc(-c4ncc(C(=O)N5CCC(Oc6ccccc6)CC5)[nH]4)c3c2)c1C` [Example 196, ethyl{[4-methyl-5-(3-{5-[(4-phenoxypiperidin-1-yl)carbonyl]-1H-imidazol-2-yl]-1H-indazol-5-yl)pyridin-3-yl]methyl}amine]: 71%; `CCNCc1cncc(-c2ccc3[nH]nc(-c4ncc(C(=O)N5CCC(C)(c6cccc(OC)c6)C5)[nH]4)c3c2)c1C` (stereo not drawn) [Example 197, ethyl({5-[3-(5-{[3-(3-methoxyphenyl)-3-methylpyrrolidin-1-yl]carbonyl}-1H-imidazol-2-yl)-1H-indazol-5-yl]-4-methylpyridin-3-yl}methyl)amine]: 67%.
Next, `CCNCc1cncc(-c2ccc3[nH]nc(-c4ncc(C(=O)NCCc5ncn[nH]5)[nH]4)c3c2)c1C` [Example 198, 2-(5-{5-[(ethylamino)methyl]-4-methylpyridin-3-yl}-1H-indazol-3-yl)-N-[2-(1H-1,2,4-triazol-5-yl)ethyl]-1H-imidazole-5-carboxamide]: 55%.
For `CCNCc1cncc(-c2ccc3[nH]nc(-c4ncc(C(=O)NCCN(C)CCCCCO)[nH]4)c3c2)c1C` [Example 199, 2-(5-{5-[(ethylamino)methyl]-4-methylpyridin-3-yl}-1H-indazol-3-yl)-N-{2-[(5-hydroxypentyl)(methyl)amino]ethyl}-1H-imidazole-5-carboxamide], the “% Inhib @ 10 nM” value is on record as 25%.
Next, `CCNCc1cncc(-c2ccc3[nH]nc(-c4ncc(C(=O)NCC(=O)OCc5ccccc5)[nH]4)c3c2)c1C` [Example 200, benzyl N-{[2-(5-{5-[(ethylamino)methyl]-4-methylpyridin-3-yl}-1H-indazol-3-yl)-1H-imidazol-5-yl]carbonyl}glycinate]: 63%.
Next, `CCNCc1cncc(-c2ccc3[nH]nc(-c4ncc(C(=O)N5CCC(c6c[nH]c7ccccc67)CC5)[nH]4)c3c2)c1C` [Example 201, ethyl({5-(3-(5-{[4-(1H-indol-3-yl)pipendin-1-yl]carbonyl}-1H-imidazol-2-yl)-1H-indazol-5-yl]-4-methylpyridin-3-yl}methyl)amine]: 67%; `CCNCc1cncc(-c2ccc3[nH]nc(-c4ncc(C(=O)NCc5ccc(S(C)(=O)=O)cc5)[nH]4)c3c2)c1C` [Example 202, 2-(5-{5-[(ethylamino)methyl]-4-methylpyridin-3-yl}-1H-indazol-3-yl)-N-[4-(methylsulfonyl)benzyl]-1H-imidazole-5-carboxamide]: 49%.
On to `CCNCc1cncc(-c2ccc3[nH]nc(-c4ncc(C(=O)N[C@@H]5CCCC[C@H]5OCc5ccccc5)[nH]4)c3c2)c1C` [Example 203, N-[(1R,2R)-2-(benzyloxy)cyclohexyl]-2-(5-{5-[(ethylamino)methyl]-4-methylpyridin-3-yl)-1H-indazol-3-yl)-1H-imidazole-5-carboxamide], for which the “% Inhib @ 10 nM” value is given as 31%.
The figure for `CCNCc1cncc(-c2ccc3[nH]nc(-c4ncc(C(=O)NC[C@]5(O)CC[C@H](c6ccccc6)CC5)[nH]4)c3c2)c1C` [Example 204, 2-(5-{5-[(ethylamino)methyl]-4-methylpyridin-3-yl}-1H-indazol-3-yl)-N-[(trans-1-hydroxy-4-phenylcyclohexyl)methyl]-1H-imidazole-5-carboxamide] is 77%; for `CCNCc1cncc(-c2ccc3[nH]nc(-c4ncc(C(=O)N5CCC6(CC5)CNC(=O)C6)[nH]4)c3c2)c1C` [Example 205, 8-{[2-(5-{5-[(ethylamino)methyl]-4-methylpyridin-3-yl}-1H-indazol-3-yl)-1H-imidazol-5-yl]carbanyl}-2,8-diazaspiro[4.5]decan-3-one] it is 40%.
Regarding `CCNCc1cncc(-c2ccc3[nH]nc(-c4ncc(C(=O)N(CCC#N)Cc5cccnc5)[nH]4)c3c2)c1C` [Example 206, N-(2-cyanoethyl)-2-(5-{5-N(ethylamino)methyl8-4-methylpyridin-3-yl}-1H-indazol-3-yl)-N-(pyridin-3-ylmethyl)-1H-imidazole-5-carboxamide], the “% Inhib @ 10 nM” value came out at 71%.
As for `C=C(C)CN(CC)C(=O)c1cnc(-c2n[nH]c3ccc(-c4cncc(CNCC)c4C)cc23)[nH]1` [Example 207], the “% Inhib @ 10 nM” value is 69%.
The figure for `CCNCc1cncc(-c2ccc3[nH]nc(-c4ncc(C(=O)NCC56C=CC(O5)[C@H]5C(=O)N(C)C(=O)[C@H]56)[nH]4)c3c2)c1C` (stereo partly drawn) [Example 208, 2-(5-{5-[(ethylamino)methyl]-4-methylpyridin-3-yl}-1H-indazol-3-yl)-N-{[(3aR,7aS)-2-methyl-13-dioxo-1,2,3,3a,7,7a-hexahydro-4H-4,7-epoxyisoindol-4-yl]methyl}-1H-imidazole-5-carboxamide] is 55%; for `CCNCc1cncc(-c2ccc3[nH]nc(-c4ncc(C(=O)N5CCN6CCCC6C5)[nH]4)c3c2)c1C` (stereo not drawn) [Example 209] it is 37%; for `CCNCc1cncc(-c2ccc3[nH]nc(-c4ncc(C(=O)NCC5(N(C)C)CCOCC5)[nH]4)c3c2)c1C` [Example 210] it is 35%.
Next, `CCNCc1cncc(-c2ccc3[nH]nc(-c4ncc(C(=O)NC5CCOCC5)[nH]4)c3c2)c1C` [Example 211, 2-(5-{5-[(ethylamino)methyl]-4-methylpyridin-3-yl}-1H-indazol-3-yl)-N-(tetrahydro-2H-pyran-4-yl)-1H-imidazole-5-carboxamide]: 57%.
With `CCNCc1cncc(-c2ccc3[nH]nc(-c4ncc(C(=O)NCc5ccc(OC)c6ccccc56)[nH]4)c3c2)c1C` [Example 212], the “% Inhib @ 10 nM” value came out at 71%.
Next, `CCNCc1cncc(-c2ccc3[nH]nc(-c4ncc(C(=O)N(CC#N)Cc5ccccc5)[nH]4)c3c2)c1C` [Example 213, N-benzyl-N-(cyanomethyl)-2-(5-{5-[(ethylamino)methyl]-4-methylpyridin-3-yl}-1H-indazol-3-yl)-1H-imidazale-5-carboxamide]: 68%.
Next, `CCNCc1cncc(-c2ccc3[nH]nc(-c4ncc(C(=O)N5CCN(CCC#N)CC5)[nH]4)c3c2)c1C` [Example 214, 3-(4-{[2-(5-{5-[(ethylamino)methyl]-4-methylpyridin-3-yl}-1H-indazol-3-yl)-1H-imidazol-5-yl]carbonyl}piperazin-1-yl)propanenitrile]: 40%; `CCNCc1cncc(-c2ccc3[nH]nc(-c4ncc(C(=O)NCc5cc6cc[nH]c6cn5)[nH]4)c3c2)c1C` [Example 215]: 72%; `CCNCc1cncc(-c2ccc3[nH]nc(-c4ncc(C(=O)NCCC56CCCN5CCC6)[nH]4)c3c2)c1C` [Example 216, 2-(5-{5-[(ethylamino)methyl]-4-methylpyridin-3-yl}-1H-indazol-3-yl)-N-[2-(tetrahydro-1H-pyrrolizin-7a(5H)-yl)ethyl]-1H-imidazole-5-carboxamide]: 13%.
The figure for `CCNCc1cncc(-c2ccc3[nH]nc(-c4ncc(C(=O)N5CCc6ncsc6C5)[nH]4)c3c2)c1C` [Example 217, [(5-{3-[5-(6,7-dihydro[1,3]thiazolo[5,4-c]pyridin-5(4H)-ylcarbonyl)-1H-imidazol-2-yl]-1H-indazol-5-yl}-4-methylpyridin-3-yl)methyl]ethylamine] is 79%; for `CCNCc1cncc(-c2ccc3[nH]nc(-c4ncc(C(=O)N5Cc6ccccc6C(c6ccccn6)C5)[nH]4)c3c2)c1C` (stereo not drawn) [Example 218, ethyl{[4-methyl-5-(3-{5-[(4-pyridin-2-yl-3,4-dihydroisoquinolin-2(1H)-yl)carbonyl]-1H-imidazxol-2-yl}-1H-indazol-5-yl)pyridin-3-yl]methyl}amine] it is 47%; for `CCNCc1cncc(-c2ccc3[nH]nc(-c4ncc(C(=O)NCC56CCCN5CCC6)[nH]4)c3c2)c1C` [Example 219, 2-(5-{5-[(ethylamino)methyl]-4-methylpyridin-3-yl}-1H-indazol-3-yl)-N-(tetrahydro-1H-pyrrolizin-7a(5H)-ylmethyl)-1H-imidazole-5-carboxamide] it is 20%.
For the molecule `CCNCc1cncc(-c2ccc3[nH]nc(-c4ncc(C(=O)N5C[C@H](C(=O)OC)[C@@H](c6cccnc6)C5)[nH]4)c3c2)c1C` [Example 220, methyl(3R,4S)-1-{[2-(5-{5-[(ethylamino)methyl]-4-methylpyridin-3-yl}-1H-indazol-3-yl)-1H-imidazol-5-yl]carbonyl}-4-pyridin-3-ylpyrrolidine-3-carboxylate], the “% Inhib @ 10 nM” value came to 46%.
The figure for `CCNCc1cncc(-c2ccc3[nH]nc(-c4ncc(C(=O)NCCc5c[nH]c6ccc(F)cc56)[nH]4)c3c2)c1C` [Example 221, 2-(5-{5-[(ethylamino)methyl]-4-methylpyridin-3-yl}-1H-indazol-3-yl)-N-[2-(5-fluoro-1H-indol-3-yl)ethyl]-1H-imidazole-5-carboxamide] is 56%; for `CCNCc1cncc(-c2ccc3[nH]nc(-c4ncc(C(=O)N5CCCN(Cc6ccc(F)cc6)CC5)[nH]4)c3c2)c1C` [Example 222, ethyl({5-[3-(5-{[4-(4-fluorobenzyl)-1,4-diazxepan-1-yl]carbonyl}1H-imidazol-2-yl)-1H-indazol-5-yl]-4-methylpyridin-3-yl}methyl)amine] it is 30%; for `CCNCc1cncc(-c2ccc3[nH]nc(-c4ncc(C(=O)NCCSc5ccc(F)cc5)[nH]4)c3c2)c1C` [Example 223] it is 71%.

For the origin of these results see patent publication US20050090529A1, “3,5 Disubstituted indazole compounds with nitrogen-bearing 5-membered heterocycles, pharmaceutical compositions, and methods for mediating or inhibiting cell proliferation” (PFIZER INC, priority 2003, published 2005).
